Measurements reported in US8633207B2, “Quinazoline compounds and methods of use thereof” (Ambit Biosciences Corporation, priority 2010, dated 2014).

Experiments:
[1] = tested on: GM-CSFR/JAK2/STAT5 pathway; assay: csTF-1 cell-based reporter assay; settings: Homo sapiens; csTF-1 cells, GM-CSF at 2 ng/mL, 4 hours; read-out: Cell Assay: CS TF-1 reporter assay IC50
Experimental: csTF-1 Cell-Based Reporter Assay
csTF-1 cells are derived from the human erythroleukemia cell line that is growth dependent on GM-CSF and has an intact GM-CSFR/JAK2/STAT5 pathway. The cell line contains stably integrated beta-lactamase reporter gene under the control of the […] (irf 1) response element recognized by the activated transcription factor STATS. csTF-1 cells (Invitrogen K1219) were washed with assay media (97% OPTIMEM/0.5% dialyzed FBS/0.1 mM NEAA/1 mM Na pyr/P/S) and seeded in the same media at 5×10^5 cell/mL in T150 flask. After 16 hour incubation, cells were seeded at 2×10^5 cell/well in 50 μl volume, into Costar, clear bottom, 96-well assay plates. Serial dilutions of compounds were added to the plates with final DMSO concentration at 0.5% and GM-CSF at 2 ng/mL and the plates were then incubated at […] and 5% CO2 for 4 hours. The plates were brought to room temperature before adding Substrate Mixture according to manufacturer's protocol (Invitrogen, Catalog #K1085). The assay plates containing the substrate mixture were incubated in the dark at room temperature for 2 hours. Blue and green fluorescence was measured with excitation at 409 nm and emission at 460 nm (for blue) and excitation at 409 nm and emission at 530 nm (for green) using Spectra Max Gemini EM.

[2] = molecular target: T1, JAK2 (Homo sapiens, UniProt O60674); assay: Competition binding assay to determine Kd against JAK kinases: JAK2
T1 construct: made in house; host or cells: T7 phage display, or HEK-293 cells (alternative)
Source text: (§1) Competition Binding Assay to Determine Binding Constants (Kd) of the Compounds Against JAK Kinases
(§2) Competition binding assays used herein were developed, validated and performed as described in Fabian et al., Nature Biotechnology 2005, 23, 329-336. Kinases were produced as fusions to T7 phage (See, Fabian et al. or WO04/015142) or alternatively, the kinases were expressed in HEK-293 cells and subsequently tagged with DNA for PCR detection (See, WO08/005,310). For the binding assays, streptavidin-coated magnetic beads were treated with biotinylated affinity ligands for 30 min at rt to generate affinity resins. The liganded beads were blocked with excess biotin and washed with blocking buffer (SeaBlock (Pierce), 1% BSA, 0.05% Tween 20, 1 mM DTT) to remove unbound ligand and to reduce non-specific binding. Binding reactions were assembled by combining kinase, liganded affinity beads, and test compounds in 1× binding buffer (20% SeaBlock, 0.17×PBS, 0.05% Tween 20, 6 mM DTT). Test compounds were prepared as 100× stocks in DMSO and rapidly diluted into the aqueous environment. DMSO was added to control assays lacking a test compound. Primary screen interactions were performed in polypropylene 384-well plates in a final volume of 34 μL, while Kd determinations were performed in polystyrene 96-well plates in a final volume of 135 μL. The assay plates were incubated at room temperature with shaking for 1 hour, long enough for binding reactions to reach equilibrium, and the affinity beads were washed extensively with wash buffer (1×PBS, 0.05% Tween 20) to remove unbound protein. The beads were then resuspended in elution buffer (1×PBS, 0.05% Tween 20, 2 μM non-biotinylated affinity ligand) and incubated at room temperature with shaking for 30 min. The kinase concentration in the eluates was measured by quantitative PCR. Each kinase was tested individually against each compound. Kds were determined using eleven serial threefold dilutions. A selectivity score, which is a quantitative measure of selectivity of a compound against a panel of enzymes, may be calculated for a compound by dividing the number of enzymes for which a compound meets a set criteria, (for example, a binding constant of 100 nM or less), by the total number of enzymes tested.

[3] = molecular target: T2, JAK3 (Homo sapiens, UniProt P52333); assay: Competition binding assay to determine Kd against JAK kinases: JAK3
T2 construct: made in house; host or cells: T7 phage display, or HEK-293 cells (alternative)
T2 sequence (P52333 1-1124): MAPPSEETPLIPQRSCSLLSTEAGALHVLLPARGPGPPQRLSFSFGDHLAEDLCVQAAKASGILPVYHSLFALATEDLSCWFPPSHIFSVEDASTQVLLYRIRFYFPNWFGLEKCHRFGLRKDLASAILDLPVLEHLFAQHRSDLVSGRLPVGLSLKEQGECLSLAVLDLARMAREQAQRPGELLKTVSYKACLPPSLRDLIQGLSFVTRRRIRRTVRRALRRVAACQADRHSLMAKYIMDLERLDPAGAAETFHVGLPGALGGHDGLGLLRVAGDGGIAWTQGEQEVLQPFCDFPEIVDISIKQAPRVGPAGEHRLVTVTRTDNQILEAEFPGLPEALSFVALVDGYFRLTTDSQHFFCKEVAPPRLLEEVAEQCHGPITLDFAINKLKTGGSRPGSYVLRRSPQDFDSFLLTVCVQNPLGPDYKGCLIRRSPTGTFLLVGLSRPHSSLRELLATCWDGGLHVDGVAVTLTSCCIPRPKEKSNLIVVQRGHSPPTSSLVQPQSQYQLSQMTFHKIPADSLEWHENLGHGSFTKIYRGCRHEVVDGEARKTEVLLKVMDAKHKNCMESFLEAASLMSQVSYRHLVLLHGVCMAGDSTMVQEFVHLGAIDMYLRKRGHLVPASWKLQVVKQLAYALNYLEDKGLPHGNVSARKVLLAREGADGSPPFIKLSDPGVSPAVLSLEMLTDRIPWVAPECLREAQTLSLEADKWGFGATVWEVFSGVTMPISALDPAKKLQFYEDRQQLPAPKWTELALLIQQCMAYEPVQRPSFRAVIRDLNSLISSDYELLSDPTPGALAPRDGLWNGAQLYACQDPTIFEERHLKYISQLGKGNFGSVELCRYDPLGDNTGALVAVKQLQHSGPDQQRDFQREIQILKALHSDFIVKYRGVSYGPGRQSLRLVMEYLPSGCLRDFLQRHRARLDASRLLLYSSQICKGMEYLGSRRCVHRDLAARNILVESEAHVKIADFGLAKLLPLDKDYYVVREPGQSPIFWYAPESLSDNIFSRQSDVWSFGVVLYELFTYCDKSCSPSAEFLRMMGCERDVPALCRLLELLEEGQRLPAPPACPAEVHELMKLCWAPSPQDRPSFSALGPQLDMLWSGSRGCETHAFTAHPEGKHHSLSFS
Source text: as §1, §2

[4] = molecular target: T3, Tyk2 (Homo sapiens, UniProt P29597); assay: Competition binding assay to determine Kd against JAK kinases: Tyk2
T3 construct: made in house; host or cells: T7 phage display, or HEK-293 cells (alternative)
Source text: as §1, §2

T1 sequence (O60674 whole entry): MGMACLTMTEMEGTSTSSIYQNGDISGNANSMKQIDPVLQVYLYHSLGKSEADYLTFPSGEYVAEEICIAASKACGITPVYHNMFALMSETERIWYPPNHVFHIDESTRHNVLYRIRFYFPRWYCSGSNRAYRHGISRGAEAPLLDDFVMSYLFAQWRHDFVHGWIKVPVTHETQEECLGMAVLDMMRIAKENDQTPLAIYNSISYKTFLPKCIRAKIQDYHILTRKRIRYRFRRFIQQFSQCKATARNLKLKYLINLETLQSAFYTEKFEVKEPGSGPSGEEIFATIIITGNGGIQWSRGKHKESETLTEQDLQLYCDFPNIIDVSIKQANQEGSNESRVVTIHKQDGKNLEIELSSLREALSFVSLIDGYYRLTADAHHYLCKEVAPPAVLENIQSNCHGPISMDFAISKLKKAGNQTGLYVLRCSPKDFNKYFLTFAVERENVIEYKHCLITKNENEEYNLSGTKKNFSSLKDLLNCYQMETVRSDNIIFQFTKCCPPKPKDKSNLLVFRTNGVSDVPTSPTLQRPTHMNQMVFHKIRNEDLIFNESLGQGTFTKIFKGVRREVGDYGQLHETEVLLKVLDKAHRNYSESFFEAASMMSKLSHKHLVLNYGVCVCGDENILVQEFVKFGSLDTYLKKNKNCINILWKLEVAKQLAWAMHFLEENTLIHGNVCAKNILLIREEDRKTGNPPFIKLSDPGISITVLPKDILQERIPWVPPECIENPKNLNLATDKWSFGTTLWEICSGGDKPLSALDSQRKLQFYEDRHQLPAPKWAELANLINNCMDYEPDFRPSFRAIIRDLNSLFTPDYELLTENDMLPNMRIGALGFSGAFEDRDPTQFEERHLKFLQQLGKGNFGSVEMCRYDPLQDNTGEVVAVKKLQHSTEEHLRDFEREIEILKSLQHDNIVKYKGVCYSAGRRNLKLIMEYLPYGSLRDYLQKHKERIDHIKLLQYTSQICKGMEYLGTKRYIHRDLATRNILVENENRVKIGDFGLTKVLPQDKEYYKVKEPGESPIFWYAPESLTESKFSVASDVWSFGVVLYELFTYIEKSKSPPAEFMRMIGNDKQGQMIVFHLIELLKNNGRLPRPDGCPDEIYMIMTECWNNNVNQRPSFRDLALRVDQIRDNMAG
T3 sequence (P29597 whole entry): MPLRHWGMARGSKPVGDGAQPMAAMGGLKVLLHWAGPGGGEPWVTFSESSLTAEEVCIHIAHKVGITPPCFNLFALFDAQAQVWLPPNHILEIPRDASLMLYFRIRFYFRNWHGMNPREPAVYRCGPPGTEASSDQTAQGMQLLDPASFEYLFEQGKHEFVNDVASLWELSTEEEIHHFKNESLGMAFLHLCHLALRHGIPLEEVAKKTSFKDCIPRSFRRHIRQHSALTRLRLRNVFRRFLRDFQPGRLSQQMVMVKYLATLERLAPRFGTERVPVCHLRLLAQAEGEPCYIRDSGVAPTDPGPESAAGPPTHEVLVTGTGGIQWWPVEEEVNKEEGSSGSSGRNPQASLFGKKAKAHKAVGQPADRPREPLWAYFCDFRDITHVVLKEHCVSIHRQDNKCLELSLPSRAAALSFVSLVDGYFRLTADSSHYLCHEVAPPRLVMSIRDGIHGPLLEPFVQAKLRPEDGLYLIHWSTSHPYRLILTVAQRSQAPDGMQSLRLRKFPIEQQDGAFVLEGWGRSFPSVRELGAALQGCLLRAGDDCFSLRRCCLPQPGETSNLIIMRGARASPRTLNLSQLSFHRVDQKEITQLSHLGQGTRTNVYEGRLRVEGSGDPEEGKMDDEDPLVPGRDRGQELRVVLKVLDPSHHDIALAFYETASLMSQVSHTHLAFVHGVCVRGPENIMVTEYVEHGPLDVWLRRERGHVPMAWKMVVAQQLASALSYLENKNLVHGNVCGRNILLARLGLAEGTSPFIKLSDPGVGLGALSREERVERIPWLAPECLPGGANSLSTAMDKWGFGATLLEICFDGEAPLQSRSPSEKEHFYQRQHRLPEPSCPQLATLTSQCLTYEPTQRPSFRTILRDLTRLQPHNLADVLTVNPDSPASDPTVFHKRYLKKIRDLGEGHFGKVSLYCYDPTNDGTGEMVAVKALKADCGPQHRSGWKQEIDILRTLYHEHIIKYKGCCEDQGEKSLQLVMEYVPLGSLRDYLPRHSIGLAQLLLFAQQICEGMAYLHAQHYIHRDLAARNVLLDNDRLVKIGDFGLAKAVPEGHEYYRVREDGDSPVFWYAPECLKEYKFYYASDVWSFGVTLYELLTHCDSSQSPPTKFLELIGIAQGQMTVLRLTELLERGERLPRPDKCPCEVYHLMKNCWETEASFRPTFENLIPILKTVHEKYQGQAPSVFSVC

| Compound | IC50 [1] [µM] | Kd [2] [µM] | Kd [3] [µM] | Kd [4] [µM] |
| --- | --- | --- | --- | --- |
| Cc1cc(Nc2nc(C(=O)c3ccc(F)cn3)nc3ccccc23)n[nH]1 [Example 1, (5-fluoropyridin-2-yl)(4-(5-methyl-1H-pyrazol-3-ylamino)quinazolin-2-yl)methanone] | ≤ 0.1 | 0.001 to 0.01 | 0.01 to 0.1 | ≤ 0.01 |
| Cc1cc(Nc2nc(C(F)(F)c3ccc(F)cn3)nc3ccccc23)n[nH]1 [Example 2, 2-(difluoro(5-fluoropyridin-2-yl)methyl)-N-(5-methyl-1H-pyrazol-3-yl)quinazolin-4-amine] | ≤ 0.1 | ≤ 0.001 | ≤ 0.01 | ≤ 0.01 |
| Cc1cc(Nc2nc(C(F)(F)c3ncc(F)cn3)nc3ccccc23)n[nH]1 [Example 3, 2-(difluoro(5-fluoropyrimidin-2-yl)methyl)-N-(5-methyl-1H-pyrazol-3-yl)quinazolin-4-amine] | ≤ 0.1 | ≤ 0.001 | 0.01 to 0.1 | ≤ 0.01 |
| Fc1ccc(C(F)(F)c2nc(Nc3cc[nH]n3)c3ccccc3n2)nc1 [Example 4, 2-(difluoro(5-fluoropyridin-2-yl)methyl)-N-(1H-pyrazol-3-yl)quinazolin-4-amine] | ≤ 0.1 | ≤ 0.001 | 0.01 to 0.1 | ≤ 0.01 |
| COc1cc(Nc2nc(C(F)(F)c3ccc(F)cn3)nc3ccccc23)n[nH]1 [Example 5, 2-(difluoro(5-fluoropyridin-2-yl)methyl)-N-(5-methoxy-1H-pyrazol-3-yl)quinazolin-4-amine] | 0.1 to 0.5 | ≤ 0.001 | 0.01 to 0.1 | ≤ 0.01 |
| COc1ccc2c(Nc3cc(C)[nH]n3)nc(C(F)(F)c3ccc(F)cn3)nc2c1 [Example 6, 2-(difluoro(5-fluoropyridin-2-yl)methyl)-7-methoxy-N-(5-methyl-1H-pyrazol-3-yl)quinazolin-4-amine] | ≤ 0.1 | ≤ 0.001 | ≤ 0.01 | ≤ 0.01 |
| Cc1cc(Nc2nc(C(F)(F)c3ccc(F)cn3)nc3cc(Br)ccc23)n[nH]1 [Example 7, 7-bromo-2-(difluoro(5-fluoropyridin-2-yl)methyl)-N-(5-methyl-1H-pyrazol-3-yl)quinazolin-4-amine] | ≤ 0.1 | ≤ 0.001 | ≤ 0.01 | ≤ 0.01 |
| Cc1cc(Nc2nc(C(F)(F)c3ccc(F)cn3)nc3cc(C#N)ccc23)n[nH]1 [Example 8, 2-(difluoro(5-fluoropyridin-2-yl)methyl)-4-(5-methyl-1H-pyrazol-3-ylamino)quinazoline-7-carbonitrile] | ≤ 0.1 | 0.001 to 0.01 | 0.01 to 0.1 | ≤ 0.01 |
| Cc1cc(Nc2nc(C(F)(F)c3ccc(F)cn3)nc3cc(C4CC4)ccc23)n[nH]1 [Example 9, 7-cyclopropyl-2-(difluoro(5-fluoropyridin-2-yl)methyl)-N-(5-methyl-1H-pyrazol-3-yl)quinazolin-4-amine] | ≤ 0.1 | ≤ 0.001 | ≤ 0.01 | ≤ 0.01 |
| Cc1cc(Nc2nc(C(F)(F)c3ccc(F)cn3)nc3c(C)cccc23)n[nH]1 [Example 10, 2-(Difluoro(5-fluoropyridin-2-yl)methyl)-8-methyl-N-(5-methyl-1H-pyrazol-3-yl)quinazolin-4-amine] | ≤ 0.1 | ≤ 0.001 | ≤ 0.01 | ≤ 0.01 |
| Cc1cc(Nc2nc(C(F)(F)c3ccc(F)cn3)nc3c(Br)cccc23)n[nH]1 [Example 11, 8-bromo-2-(difluoro(5-fluoropyridin-2-yl)methyl)-N-(5-methyl-1H-pyrazol-3-yl)quinazolin-4-amine] | 0.1 to 0.5 | ≤ 0.001 | 0.01 to 0.1 | ≤ 0.01 |
| Cc1cc(Nc2nc(C(F)(F)c3ccc(F)cn3)nc3c(F)cccc23)n[nH]1 [Example 12, 2-(difluoro(5-fluoropyridin-2-yl)methyl)-8-fluoro-N-(3-methyl-1H-pyrazol-5-yl)quinazolin-4-amine] | ≤ 0.1 | ≤ 0.001 | ≤ 0.01 | ≤ 0.01 |
| Cc1cc(Nc2nc(C(F)(F)c3ccc(F)cn3)nc3c(Cl)cccc23)n[nH]1 [Example 13, 8-chloro-2-(difluoro(5-fluoropyridin-2-yl)methyl)-N-(5-methyl-1H-pyrazol-3-yl)quinazolin-4-amine] | ≤ 0.1 | ≤ 0.001 | ≤ 0.01 | ≤ 0.01 |
| Cc1ccc2c(Nc3cc(C)[nH]n3)nc(C(F)(F)c3ccc(F)cn3)nc2c1 [Example 14, 2-(difluoro(5-fluoropyridin-2-yl)methyl)-7-methyl-N-(5-methyl-1H-pyrazol-3-yl)quinazolin-4-amine] | ≤ 0.1 | ≤ 0.001 | ≤ 0.01 | ≤ 0.01 |
| Cc1cc(Nc2nc(C(F)(F)c3ccc(F)cn3)nc3cc(F)ccc23)n[nH]1 [Example 15, 2-(difluoro(5-fluoropyridin-2-yl)methyl)-7-fluoro-N-(5-methyl-1H-pyrazol-3-yl)quinazolin-4-amine] | ≤ 0.1 | ≤ 0.001 | 0.01 to 0.1 | ≤ 0.01 |
| Cc1cc(Nc2nc(C(F)(F)c3ccc(F)cn3)nc3cc(Cl)ccc23)n[nH]1 [Example 16, 7-chloro-2-(difluoro(5-fluoropyridin-2-yl)methyl)-N-(5-methyl-1H-pyrazol-3-yl)quinazolin-4-amine] | ≤ 0.1 | ≤ 0.001 | 0.01 to 0.1 | ≤ 0.01 |
| COC(=O)c1cccc2c(Nc3cc(C)[nH]n3)nc(C(F)(F)c3ccc(F)cn3)nc12 [Example 47, methyl 2-(difluoro(5-fluoropyridin-2-yl)methyl)-4-((5-methyl-1H-pyrazol-3-yl)amino)quinazoline-8-carboxylate] | – | ≤ 0.001 | ≤ 0.01 | ≤ 0.01 |
